Experimental data taken from patent publication US7875647B2, “Heteroaryl-pyrazole derivatives as cannabinoid CB1 receptor antagonists” (Green Cross Corporation, priority 2006, dated 2011).

The compounds below were run against T1, Cannabinoid-1 receptor (CB1R) (Rattus norvegicus, UniProt P20272) (assay: Cannabinoid-1 receptor (CB1R) binding affinity assay ([3H]CP-55940, rat CB-1 receptor binding protocol)). Settings: IC50(nM), brain tissue of SD rats, [3H]CP-55940, 30° C. 60 min.
T1 construct: The tissue obtained from the brain of SD rats was homogenized; from tissue; host or cells: brain of SD rats (membrane pellet of the homogenate)
T1 sequence (P20272 whole entry): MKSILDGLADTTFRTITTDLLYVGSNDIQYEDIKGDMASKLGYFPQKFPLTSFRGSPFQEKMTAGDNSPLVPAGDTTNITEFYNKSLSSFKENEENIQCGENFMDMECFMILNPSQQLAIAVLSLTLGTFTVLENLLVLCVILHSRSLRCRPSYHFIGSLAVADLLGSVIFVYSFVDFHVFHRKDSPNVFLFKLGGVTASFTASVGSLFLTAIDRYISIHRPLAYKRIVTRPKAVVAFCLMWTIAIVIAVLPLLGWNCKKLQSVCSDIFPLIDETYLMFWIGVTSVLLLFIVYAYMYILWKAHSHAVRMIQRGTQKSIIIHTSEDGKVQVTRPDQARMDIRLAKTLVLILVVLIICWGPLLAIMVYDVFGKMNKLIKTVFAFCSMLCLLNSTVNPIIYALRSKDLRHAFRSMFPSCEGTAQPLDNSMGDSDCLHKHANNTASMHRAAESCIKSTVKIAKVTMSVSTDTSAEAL

SMILES | IC50
CCc1c(-c2nnc(C3(c4ccc(Cl)cc4)CCC3)s2)nn(-c2ccc(Cl)cc2Cl)c1-c1ccc(Cl)cc1 [Example 483, 2-(5-(4-chlorophenyl)-1-(2,4-dichlorophenyl)-4-ethyl-1H-pyrazol-3-yl)-5-(1-(4-chlorophenyl)cyclobutyl)-1,3,4-thiadiazole] | 2.32 nM
C=Cc1c(-c2nnc(C(C)(C)C)o2)nn(-c2ccc(Cl)cc2Cl)c1-c1ccc(Br)cc1 [Example 228, 2-(5-(4-bromophenyl)-1-(2,4-dichlorophenyl)-4-vinyl-1H-pyrazol-3-yl)-5-tert-butyl-1,3,4-oxadiazole] | 16.6 nM

Same assay, conditions: brain tissue of SD rats, [3H]CP-55940, 30° C. 60 min; read-out: IC50

IC50 | SMILES
9.36 nM | CC(=O)C1(c2nnc(-c3nn(-c4ccc(Cl)cc4Cl)c(-c4ccc(Cl)cc4)c3C)o2)CC1 [Example 286, 1-(1-(5-(5-(4-chlorophenyl)-1-(2,4-dichlorophenyl)-4-methyl-1H-pyrazol-3-yl)-1,3,4-oxadiazol-2-yl)cyclopropyl)ethanone]
19.1 nM | Cc1c(-c2nnc(C(C)(C)C3CCCC3)o2)nn(-c2ccc(Cl)cc2Cl)c1-c1ccc(Cl)cc1 [Example 63, 2-(5-(4-chlorophenyl)-1-(2,4-dichlorophenyl)-4-methyl-1H-pyrazol-3-yl)-5-(2-cyclopentylpropan-2-yl)-1,3,4-oxadiazole]
11.2 nM | Cc1c(-c2nnc(C(C)CC3CCC3)o2)nn(-c2ccc(Cl)cc2Cl)c1-c1ccc(Cl)cc1 (centres unmarked) [Example 54, 2-(5-(4-chlorophenyl)-1-(2,4-dichlorophenyl)-4-methyl-1H-pyrazol-3-yl)-5-(1-cyclobutylpropan-2-yl)-1,3,4-oxadiazole]
14.7 nM | Cc1c(-c2nnc(C(C)(C)C)s2)nn(-c2ccccc2Cl)c1-c1ccc(Cl)cc1 [Example 405, 2-tert-butyl-5-(1-(2-chlorophenyl)-5-(4-chlorophenyl)-4-methyl-1H-pyrazol-3-yl)-1,3,4-thiadiazole]
12.7 nM | Cc1c(-c2ncc(C(C)(C)C)s2)nn(-c2ccc(Cl)cc2Cl)c1-c1ccc(Cl)cc1 [Example 649, 5-tert-butyl-2-(5-(4-chlorophenyl)-1-(2,4-dichlorophenyl)-4-methyl-1H-pyrazol-3-yl)thiazole]
69.4 nM | Cc1c(-c2ncc(C3CCCC3)s2)nn(-c2ccc(Cl)cc2Cl)c1-c1ccc(Cl)cc1 [Example 648, 2-(5-(4-chlorophenyl)-1-(2,4-dichlorophenyl)-4-methyl-1H-pyrazol-3-yl)-5-cyclopentylthiazole]
93.8 nM | Cc1c(-c2nnn(Cc3ccco3)n2)nn(-c2ccc(Cl)cc2Cl)c1-c1ccc(Cl)cc1 [Example 594, 5-(5-(4-Chlorophenyl)-1-(2,4-dichlorophenyl)-4-methyl-1H-pyrazol-3-yl)-2-(furan-2-ylmethyl)-2H-tetrazole]
48.9 nM | Cc1c(-c2nnc(C3(c4ccc(F)cc4)CC3)s2)nn(-c2ccc(Cl)cc2Cl)c1-c1ccc(Cl)cc1 [Example 496, 2-(5-(4-chlorophenyl)-1-(2,4-dichlorophenyl)-4-methyl-1H-pyrazol-3-yl)-5-(1-(4-fluorophenyl)cyclopropyl)-1,3,4-thiadiazole]
9.41 nM | Cc1c(-c2nnc(C(C)(C)OCc3ccccc3)o2)nn(-c2ccc(Cl)cc2Cl)c1-c1ccc(Cl)cc1 [Example 245, 2-(2-(benzyloxy)propan-2-yl)-5-(5-(4-chlorophenyl)-1-(2,4-dichlorophenyl)-4-methyl-1H-pyrazol-3-yl)-1,3,4-oxadiazole]
20.6 nM | C=Cc1c(-c2nnc(C(C)(C)C)s2)nn(-c2ccc(Cl)cc2Cl)c1-c1ccc(Br)cc1 [Example 531, 2-(5-(4-bromophenyl)-1-(2,4-dichlorophenyl)-4-vinyl-1H-pyrazol-3-yl)-5-tert-butyl-1,3,4-thiadiazole]
19.5 nM | Cc1c(-c2nnc(C(C)(C)C3CCCC3)s2)nn(-c2ccc(Cl)cc2Cl)c1-c1ccc(Cl)cc1 [Example 393, 2-(5-(4-chlorophenyl)-1-(2,4-dichlorophenyl)-4-methyl-1H-pyrazol-3-yl)-5-(2-cyclopentylpropan-2-yl)-1,3,4-thiadiazole]
20.7 nM | CC(=O)SCc1c(-c2nnc(C(C)(C)C)o2)nn(-c2ccc(Cl)cc2Cl)c1-c1ccc(Cl)cc1 [Example 308, S-(3-(5-tert-butyl-1,3,4-oxadiazol-2-yl)-5-(4-chlorophenyl)-1-(2,4-dichlorophenyl)-1H-pyrazol-4-yl)methyl ethanethioate]
29.5 nM | CC(C)(c1ccc(Cl)cc1)c1nnc(-c2nn(-c3ccc(Cl)cc3Cl)c(-c3ccc(Cl)cc3)c2Br)s1 [Example 546, 2-(4-bromo-5-(4-chlorophenyl)-1-(2,4-dichlorophenyl)-1H-pyrazol-3-yl)-5-(2-(4-chlorophenyl)propan-2-yl)-1,3,4-thiadiazole]
51.4 nM | CCc1cnc(-c2nn(-c3ccc(Cl)cc3Cl)c(-c3ccc(Cl)cc3)c2C)o1 [Example 640, 2-(5-(4-chlorophenyl)-1-(2,4-dichlorophenyl)-4-methyl-1H-pyrazol-3-yl)-5-ethyloxazole]

The remaining lines, values behind:

SMILES | IC50
CC(C)c1c(-c2nnc(C3(c4ccc(Cl)cc4)CC3)o2)nn(-c2ccc(Cl)cc2Cl)c1-c1ccc(Cl)cc1 [Example 181, 2-(5-(4-chlorophenyl)-1-(2,4-dichlorophenyl)-4-isopropyl-1H-pyrazol-3-yl)-5-(1-(4-chlorophenyl)cyclopropyl)-1,3,4-oxadiazole] | 9.72 nM
CCc1c(-c2nnc(C3CCC3)s2)nn(-c2ccc(Cl)cc2Cl)c1-c1ccc(Cl)cc1 [Example 395, 2-(5-(4-chlorophenyl)-1-(2,4-dichlorophenyl)-4-ethyl-1H-pyrazol-3-yl)-5-cyclobutyl-1,3,4-thiadiazole] | 21.8 nM
Cc1c(-c2nnc(C3(c4ccc(Cl)cc4)CCC3)o2)nn(-c2c(Cl)cccc2Cl)c1-c1ccc(Cl)cc1 [Example 162, 2-(5-(4-chlorophenyl)-1-(2,6-dichlorophenyl)-4-methyl-1H-pyrazol-3-yl)-5-(1-(4-chlorophenyl)cyclobutyl)-1,3,4-oxadiazole] | 59.2 nM
FC(F)(F)C1(c2nnc(-c3nn(-c4ccc(Cl)cc4Cl)c(-c4ccc(Cl)cc4)c3Cn3cncn3)o2)CCC1 [Example 321, 2-(4-((1H-1,2,4-triazol-1-yl)methyl)-5-(4-chlorophenyl)-1-(2,4-dichlorophenyl)-1H-pyrazol-3-yl)-5-(1-(trifluoromethyl)cyclobutyl)-1,3,4-oxadiazole] | 1.73 nM
CC(O)c1c(-c2nnc(C(C)(C)C)o2)nn(-c2ccc(Cl)cc2Cl)c1-c1ccc(Cl)cc1 (centres unmarked) [Example 207, 1-(3-(5-tert-butyl-1,3,4-oxadiazol-2-yl)-5-(4-chlorophenyl)-1-(2,4-dichlorophenyl)-1H-pyrazol-4-yl)ethanol] | 10.1 nM
Clc1ccc(-c2c(C3CC3)c(-c3nnc(C4CCCCC4)s3)nn2-c2ccc(Cl)cc2Cl)cc1 [Example 440, 2-(5-(4-chlorophenyl)-4-cyclopropyl-1-(2,4-dichlorophenyl)-1H-pyrazol-3-yl)-5-cyclohexyl-1,3,4-thiadiazole] | 11 nM
CC(C)(C)c1nnc(-c2nn(-c3ccc(Cl)cc3Cl)c(-c3ccc(Br)cc3)c2CF)o1 [Example 222, 2-(5-(4-bromophenyl)-1-(2,4-dichlorophenyl)-4-(fluoromethyl)-1H-pyrazol-3-yl)-5-tert-butyl-1,3,4-oxadiazole] | 7.99 nM
COC(c1ccccc1)(c1nnc(-c2nn(-c3ccc(Cl)cc3Cl)c(-c3ccc(Cl)cc3)c2C)o1)C(F)(F)F (centres unmarked) [Example 251, 2-(5-(4-chlorophenyl)-1-(2,4-dichlorophenyl)-4-methyl-1H-pyrazol-3-yl)-5-(2,2,2-trifluoro-1-methoxy-1-phenylethyl)-1,3,4-oxadiazole] | 12.8 nM
CCc1c(-c2nnc(C3(c4ccccc4)CC3)s2)nn(-c2ccc(Cl)cc2Cl)c1-c1ccc(Cl)cc1 [Example 479, 2-(5-(4-chlorophenyl)-1-(2,4-dichlorophenyl)-4-ethyl-1H-pyrazol-3-yl)-5-(1-phenylcyclopropyl)-1,3,4-thiadiazole] | 6.56 nM
CC(C)(C)c1nnc(-c2nn(-c3ccc(Cl)cc3Cl)c(-c3ccc(Cl)cc3)c2COC(=O)c2ccccc2)o1 [Example 198, (3-(5-tert-butyl-1,3,4-oxadiazol-2-yl)-5-(4-chlorophenyl)-1-(2,4-dichlorophenyl)-1H-pyrazol-4-yl)methyl benzoate] | 68.8 nM
CCc1c(-c2nnc(C3(c4cccc(Cl)c4)CC3)s2)nn(-c2ccc(Cl)cc2Cl)c1-c1ccc(Br)cc1 [Example 495, 2-(5-(4-bromophenyl)-1-(2,4-dichlorophenyl)-4-ethyl-1H-pyrazol-3-yl)-5-(1-(3-chlorophenyl)cyclopropyl)-1,3,4-thiadiazole] | 6.23 nM
CC(C)c1c(-c2nnc(C3(c4ccc(Cl)cc4)CCC3)o2)nn(-c2ccc(Cl)cc2Cl)c1-c1ccc(Cl)cc1 [Example 182, 2-(5-(4-chlorophenyl)-1-(2,4-dichlorophenyl)-4-isopropyl-1H-pyrazol-3-yl)-5-(1-(4-chlorophenyl)cyclobutyl)-1,3,4-oxadiazole] | 22.5 nM
CCc1c(-c2nnc(C3(CC)CC3)o2)nn(-c2ccc(Cl)cc2Cl)c1-c1ccc(Cl)cc1 [Example 278, 2-(5-(4-chlorophenyl)-1-(2,4-dichlorophenyl)-4-ethyl-1H-pyrazol-3-yl)-5-(1-ethylcyclopropyl)-1,3,4-oxadiazole] | 17.1 nM
CCc1c(-c2nnc(C3(c4ccc(C)cc4)CC3)s2)nn(-c2ccc(Cl)cc2Cl)c1-c1ccc(Cl)cc1 [Example 480, 2-(5-(4-chlorophenyl)-1-(2,4-dichlorophenyl)-4-ethyl-1H-pyrazol-3-yl)-5-(1-p-tolylcyclopropyl)-1,3,4-thiadiazole] | 5.08 nM
CCc1c(-c2nnc(C3CCCCCC3)s2)nn(-c2ccc(Cl)cc2Cl)c1-c1ccc(Br)cc1 [Example 400, 2-(5-(4-bromophenyl)-1-(2,4-dichlorophenyl)-4-ethyl-1H-pyrazol-3-yl)-5-cycloheptyl-1,3,4-thiadiazole] | 5.26 nM
CC(=O)c1c(-c2nnc(C(C)(C)C)o2)nn(-c2ccc(Cl)cc2Cl)c1-c1ccc(Br)cc1 [Example 214, 1-(5-(4-bromophenyl)-3-(5-tert-butyl-1,3,4-oxadiazol-2-yl)-1-(2,4-dichlorophenyl)-1H-pyrazol-4-yl)ethanone] | 11.9 nM
